According to patent publication US8846933B2, “N-link hydroxamic acid derivatives useful as antibacterial agents” (Pfizer Inc., priority 2009, dated 2014):

Legend:
[1] = system: Escherichia coli EC-1: VOGEL, mouse virulent; assay: MIC determination (CLSI), strain EC-1; assay type: cell-based; conditions: strain EC-1; generated in the same manner as in Table 4; unit assumed
Experimental: (§1) The in vitro antibacterial activity of compounds described in the Examples was evaluated by minimum inhibitory concentration (MIC) testing according to Clinical and Laboratory Standards Institute (CLSI, formerly NCCLS) guidelines. See: Clinical and Laboratory Standards Institute. Methods for Dilution Antimicrobial Susceptibility Tests for Bacteria that Grow Aerobically; Approved Standard-Seventh Edition. CLSI document M7-A7 [ISBN 1-56238-587-9]. Clinical and Laboratory Standards Institute, 940 West Valley Road, Suite 1400, Wayne, Pa. 19087-1898 USA, 2006; also Clinical and Laboratory Standards Institute. Performance Standards for Antimicrobial Susceptibility Testing; Eighteenth Informational Supplement. CLSI document M100-S18 [ISBN1-56238-653-0].Clinical and Laboratory Standards Institute.
(§2) The following bacterial strains were used in these MIC determinations:
3) Escherichia coli EC-1: VOGEL, mouse virulent labeled as EC-1 in Tables 4 and 5;

[2] = system: Pseudomonas aeruginosa UI-18: Wild-type (PA-7); assay: MIC determination (CLSI), strain PA-7; assay type: cell-based; conditions: strain PA-7; generated in the same manner as in Table 4; unit assumed
Experimental: as §1, §2
1) Pseudomonas aeruginosa UI-18: Wild-type, labeled as PA-7 in Tables 4, and 5;

In the case of `CNS(=O)(=O)c1ccc(-c2ccn(CCC(C)(C(=O)NO)S(C)(=O)=O)c(=O)c2)cc1` (stereo not drawn) [Example 102, N-hydroxy-2-methyl-4-[4-{4-[(methylamino)sulfonyl]phenyl}-2-oxopyridin-1(2H)-yl]-2-(methylsulfonyl)butanamide], the EC-1 (MIC) [1] is reported as greater than 64 µg/mL and the PA-7 (MIC) [2] is reported as greater than 64 µg/mL.

Work on `CCNC(=O)c1cc(F)cc(-c2ccn(CCC(C)(C(=O)NO)S(C)(=O)=O)c(=O)c2)c1` (stereo not drawn) [Example 103, N-ethyl-3-fluoro-5-{1-[4-(hydroxyamino)-3-methyl-3-(methylsulfonyl)-4-oxobutyl]-2-oxo-1,2-dihydropyridin-4-yl}benzamide] yielded an EC-1 (MIC) [1] greater than 64 µg/mL and a PA-7 (MIC) [2] greater than 64 µg/mL.

`Cn1ccnc1-c1ccc(-c2ccn(CCC(C)(C(=O)NO)S(C)(=O)=O)c(=O)c2)cc1` (stereo not drawn) [Example 104, N-hydroxy-2-methyl-4-{4-[4-(1-methyl-1H-imidazol-2-yl)phenyl]-2-oxopyridin-1(2H)-yl}-2-(methylsulfonyl)butanamide] was tested, and the EC-1 (MIC) [1] was greater than 64 µg/mL and the PA-7 (MIC) [2] was greater than 64 µg/mL.

In the case of `CCOc1ccc(Cl)cc1-c1ccn(CCC(C)(C(=O)NO)S(C)(=O)=O)c(=O)c1` (stereo not drawn) [Example 105, 4-[4-(5-chloro-2-ethoxyphenyl)-2-oxopyridin-1(2H)-yl]-N-hydroxy-2-methyl-2-(methylsulfonyl)butanamide], the EC-1 (MIC) [1] is reported as greater than 64 µg/mL and the PA-7 (MIC) [2] is reported as greater than 64 µg/mL.

With `CN(C)S(=O)(=O)c1ccc(-c2ccn(CCC(C)(C(=O)NO)S(C)(=O)=O)c(=O)c2)cc1` (stereo not drawn) [Example 106, 4-[4-{4-[(dimethylamino)sulfonyl]phenyl}-2-oxopyridin-1(2H)-yl]-N-hydroxy-2-methyl-2-(methylsulfonyl)butanamide] the EC-1 (MIC) [1] was greater than 64 µg/mL and the PA-7 (MIC) [2] was 64 µg/mL.

With `CC(CCn1ccc(-c2ccsc2)cc1=O)(C(=O)NO)S(C)(=O)=O` (stereo not drawn) [Example 107, N-hydroxy-2-methyl-2-(methylsulfonyl)-4-[2-oxo-4-(3-thienyl)pyridin-1(2H)-yl]butanamide] the EC-1 (MIC) [1] was 32 µg/mL and the PA-7 (MIC) [2] was 16 µg/mL.

Work on `Cc1ccc(N)cc1-c1ccn(CCC(C)(C(=O)NO)S(C)(=O)=O)c(=O)c1` (stereo not drawn) [Example 108, 4-[4-(5-amino-2-methylphenyl)-2-oxopyridin-1(2H)-yl]-N-hydroxy-2-methyl-2-(methylsulfonyl)butanamide] yielded an EC-1 (MIC) [1] greater than 64 µg/mL and a PA-7 (MIC) [2] greater than 64 µg/mL.

Compound `CC(CCn1ccc(-c2cncc3ccccc23)cc1=O)(C(=O)NO)S(C)(=O)=O` (stereo not drawn) [Example 109, N-hydroxy-4-(4-isoquinolin-4-yl-2-oxopyridin-1(2H)-yl)-2-methyl-2-(methylsulfonyl)butanamide] has an EC-1 (MIC) [1] greater than 64 µg/mL and a PA-7 (MIC) [2] greater than 64 µg/mL.

`CC(CCn1ccc(-c2cccc(N)c2)cc1=O)(C(=O)NO)S(C)(=O)=O` (stereo not drawn) [Example 110, 4-[4-(3-aminophenyl)-2-oxopyridin-1(2H)-yl]-N-hydroxy-2-methyl-2-(methylsulfonyl)butanamide] showed an EC-1 (MIC) [1] greater than 64 µg/mL and a PA-7 (MIC) [2] of 64 µg/mL.

`CC(CCn1ccc(-c2cccc(-n3cccn3)c2)cc1=O)(C(=O)NO)S(C)(=O)=O` (stereo not drawn) [Example 111, N-hydroxy-2-methyl-2-(methylsulfonyl)-4-{2-oxo-4-[3-(1H-pyrazol-1-yl)phenyl]pyridin-1(2H)-yl}butanamide] gave an EC-1 (MIC) [1] greater than 64 µg/mL and a PA-7 (MIC) [2] greater than 64 µg/mL.

Compound `Cc1cc(F)cc(-c2ccn(CCC(C)(C(=O)NO)S(C)(=O)=O)c(=O)c2)c1` (stereo not drawn) [Example 112, 4-[4-(3-fluoro-5-methylphenyl)-2-oxopyridin-1(2H)-yl]-N-hydroxy-2-methyl-2-(methylsulfonyl)butanamide] has an EC-1 (MIC) [1] of 4 µg/mL and a PA-7 (MIC) [2] of 4 µg/mL.

`Cc1cc(C(N)=O)ccc1-c1ccn(CCC(C)(C(=O)NO)S(C)(=O)=O)c(=O)c1` (stereo not drawn) [Example 113, 4-{1-[4-(hydroxyamino)-3-methyl-3-(methylsulfonyl)-4-oxobutyl]-2-oxo-1,2-dihydropyridin-4-yl}-3-methylbenzamide] gave an EC-1 (MIC) [1] greater than 64 µg/mL and a PA-7 (MIC) [2] greater than 64 µg/mL.

In the case of `CC(CCn1ccc(-c2cccc(Cl)c2)cc1=O)(C(=O)NO)S(C)(=O)=O` (stereo not drawn) [Example 114, 4-[4-(3-chlorophenyl)-2-oxopyridin-1(2H)-yl]-N-hydroxy-2-methyl-2-(methylsulfonyl)butanamide], the EC-1 (MIC) [1] is reported as 2 µg/mL and the PA-7 (MIC) [2] is reported as 4 µg/mL.

For `Cc1ccc(-c2ccn(CCC(C)(C(=O)NO)S(C)(=O)=O)c(=O)c2)cc1N` (stereo not drawn) [Example 115, 4-[4-(3-amino-4-methylphenyl)-2-oxopyridin-1(2H)-yl]-N-hydroxy-2-methyl-2-(methylsulfonyl)butanamide], the EC-1 (MIC) [1] was 64 µg/mL and the PA-7 (MIC) [2] was 16 µg/mL.

`CN(C)c1ccc(-c2ccn(CCC(C)(C(=O)NO)S(C)(=O)=O)c(=O)c2)cn1` (stereo not drawn) [Example 116, 4-[6-(dimethylamino)-2′-oxo-3,4′-bipyridin-1′(2′H)-yl]-N-hydroxy-2-methyl-2-(methylsulfonyl)butanamide] was tested, and the EC-1 (MIC) [1] was 16 µg/mL and the PA-7 (MIC) [2] was 64 µg/mL.

In the case of `CC(CCn1ccc(-c2cc(F)ccc2O)cc1=O)(C(=O)NO)S(C)(=O)=O` (stereo not drawn) [Example 117, 4-[4-(5-fluoro-2-hydroxyphenyl)-2-oxopyridin-1(2H)-yl]-N-hydroxy-2-methyl-2-(methylsulfonyl)butanamide], the EC-1 (MIC) [1] is reported as greater than 64 µg/mL and the PA-7 (MIC) [2] is reported as greater than 64 µg/mL.

`CC(CCn1ccc(-c2ccoc2)cc1=O)(C(=O)NO)S(C)(=O)=O` (stereo not drawn) [Example 118, 4-[4-(3-furyl)-2-oxopyridin-1(2H)-yl]-N-hydroxy-2-methyl-2-(methylsulfonyl)butanamide] was tested, and the EC-1 (MIC) [1] was greater than 64 µg/mL and the PA-7 (MIC) [2] was 64 µg/mL.

`CC(CCn1ccc(-c2ccc(C3CCCCC3)cc2)cc1=O)(C(=O)NO)S(C)(=O)=O` (stereo not drawn) [Example 119, 4-[4-(4-cyclohexylphenyl)-2-oxopyridin-1(2H)-yl]-N-hydroxy-2-methyl-2-(methylsulfonyl)butanamide] gave an EC-1 (MIC) [1] of 0.5 µg/mL and a PA-7 (MIC) [2] of 16 µg/mL.

`COc1ccccc1-c1ccn(CCC(C)(C(=O)NO)S(C)(=O)=O)c(=O)c1` (stereo not drawn) [Example 120, N-hydroxy-4-[4-(2-methoxyphenyl)-2-oxopyridin-1(2H)-yl]-2-methyl-2-(methylsulfonyl)butanamide] was tested, and the EC-1 (MIC) [1] was 64 µg/mL and the PA-7 (MIC) [2] was 16 µg/mL.

For `CC(CCn1ccc(-c2cc(F)cc(Cl)c2)cc1=O)(C(=O)NO)S(C)(=O)=O` (stereo not drawn) [Example 121, 4-[4-(3-chloro-5-fluorophenyl)-2-oxopyridin-1(2H)-yl]-N-hydroxy-2-methyl-2-(methylsulfonyl)butanamide], the EC-1 (MIC) [1] was 8 µg/mL and the PA-7 (MIC) [2] was 16 µg/mL.

For `Cc1cc(F)ccc1-c1ccn(CCC(C)(C(=O)NO)S(C)(=O)=O)c(=O)c1` (stereo not drawn) [Example 122, 4-[4-(4-fluoro-2-methylphenyl)-2-oxopyridin-1(2H)-yl]-N-hydroxy-2-methyl-2-(methylsulfonyl)butanamide], the EC-1 (MIC) [1] was 16 µg/mL and the PA-7 (MIC) [2] was 8 µg/mL.

`COc1ccc(-c2ccn(CCC(C)(C(=O)NO)S(C)(=O)=O)c(=O)c2)c(F)c1F` (stereo not drawn) [Example 123, 4-[4-(2,3-difluoro-4-methoxyphenyl)-2-oxopyridin-1(2H)-yl]-N-hydroxy-2-methyl-2-(methylsulfonyl)butanamide] showed an EC-1 (MIC) [1] of 2 µg/mL and a PA-7 (MIC) [2] of 2 µg/mL.

With `CC(CCn1ccc(-c2cnc3ccccc3c2)cc1=O)(C(=O)NO)S(C)(=O)=O` (stereo not drawn) [Example 124, N-hydroxy-2-methyl-2-(methylsulfonyl)-4-(2-oxo-4-quinolin-3-ylpyridin-1(2H)-yl)butanamide] the EC-1 (MIC) [1] was 16 µg/mL and the PA-7 (MIC) [2] was 16 µg/mL.

With `CC(CCn1ccc(-c2cnc3ccccc3c2)cc1=O)(C(=O)NO)S(C)(=O)=O` (stereo not drawn) [Example 125, N-hydroxy-2-methyl-2-(methylsulfonyl)-4-(2-oxo-4-quinolin-3-ylpyridin-1(2H)-yl)butanamide] the EC-1 (MIC) [1] was 16 µg/mL and the PA-7 (MIC) [2] was 32 µg/mL.
